Each structure is given as a SMILES string.

This test has as its target T1, human EP3 receptor (Homo sapiens, UniProt P43115).
T1 construct: expressed in transfected cells; host or cells: CHO K1 (Chinese Hamster Ovary), stably co-transfected with Galpha16 and mitochondrial clytin
T1 sequence (P43115 1-390): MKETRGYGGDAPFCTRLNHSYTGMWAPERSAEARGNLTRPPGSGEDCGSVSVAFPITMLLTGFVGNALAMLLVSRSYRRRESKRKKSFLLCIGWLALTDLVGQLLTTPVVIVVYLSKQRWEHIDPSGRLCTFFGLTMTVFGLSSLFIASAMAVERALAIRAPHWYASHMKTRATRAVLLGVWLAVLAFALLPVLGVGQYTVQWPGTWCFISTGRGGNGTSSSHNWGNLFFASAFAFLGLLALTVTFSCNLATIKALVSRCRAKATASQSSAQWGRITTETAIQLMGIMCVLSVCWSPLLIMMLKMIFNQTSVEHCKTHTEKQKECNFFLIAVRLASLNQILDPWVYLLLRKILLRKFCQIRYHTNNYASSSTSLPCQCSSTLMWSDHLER
In words: Cellular in vitro assay for determining EP3 receptor activity (human EP3 cell line, sulprostone-stimulated calcium luminescence). Format: cell-based. As to conditions: CHO cells expressing human EP3 and mitochondrial Clytin; antagonist mode, sulprostone at EC50; read-out: EP3 CHO mtCLY ANTAG IC50. The essentials:
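CHO K1 cells stably expressing human EP3 with Gα16 and mitochondrial Clytin, loaded overnight with coelenterazine. Compounds added 10 min before sulprostone at its EC50; antagonism read immediately as reduced calcium-driven luminescence, quadruplicate points.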
On to `Cc1cc(-c2cn3nc(C(=O)NCCN(CC(F)F)C4CC4)c(C4CC4)c3c(=O)[nH]2)ccc1C(F)(F)F` [6-128], for which the IC50 amounted to 9.25 nM. As for `COc1ccc(CNC(=O)c2cc3c(=O)[nH]c(-c4ccc(C)c(Cl)c4)c(C)n3n2)cc1OC` [Example 1-129, 6-(3-Chloro-4-methylphenyl)-N-(3,4-dimethoxybenzyl)-7-methyl-4-oxo-4,5-dihydropyrazolo-[1,5-a]pyrazine-2-carboxamide], the figure is 7.82 nM. For `Cc1cc(-c2cn3nc(C(=O)NCCC(O)C(F)(F)F)c(C4CC4)c3c(=O)[nH]2)ccc1Cl` (single isomer, unassigned) [6-311], the IC50 was found to be 1.05 nM. As for `Cc1cc(-c2cn3nc(C(=O)NC4(c5ccc(F)cc5)CN(C)C4)c(C(F)(F)F)c3c(=O)[nH]2)ccc1Cl` [6-207], the figure is 4.35 nM. Consider `Cc1cccc2ncc(-c3cn4nc(C(=O)Nc5cccc6ncccc56)c(C(C)C)c4c(=O)[nH]3)cc12` [Example 4-29, 6-(5-Methylquinolin-3-yl)-4-oxo-3-(propan-2-yl)-N-(quinolin-5-yl)-4,5-dihydropyrazolo[1,5-a]pyrazine-2-carboxamide], for which the IC50 is 1.6 nM. With `Cc1cc(-c2cn3nc(C(=O)N[C@H](C)C4CC4)c(C4CC4)c3c(=O)[nH]2)ccc1Cl` [6-335], the IC50 turned out to be 1.8 nM.

For `Cc1c(C(=O)N[C@H](C)c2ccccc2)nn2c(C)c(-c3ccc4ccccc4c3)[nH]c(=O)c12` [Example 3-65, 3,7-Dimethyl-6-(naphthalen-2-yl)-4-oxo-N-[(1R)-1-phenylethyl]-4,5-dihydropyrazolo[1,5-a]pyrazine-2-carboxamide], the IC50 was found to be 2 nM. Regarding `Cc1cc(-c2cn3nc(C(=O)NCC(O)(C(F)(F)F)C(F)(F)F)c(C4CC4)c3c(=O)[nH]2)ccc1F` [6-658], the IC50 is 7 nM. Then `CC(C)(C)OC(=O)NCC(NC(=O)c1cc2c(=O)[nH]c(-c3ccc4c(c3)OCCO4)cn2n1)c1ccc(F)cc1` (stereo not drawn) [6-43], with 3.15 nM. For `Cc1ccc(-c2cn3nc(C(=O)N[C@H](CCO)c4ccc(F)cc4)cc3c(=O)[nH]2)cc1Cl` [6-122], the IC50 worked out at 0.88 nM.

Regarding `Cc1c(C(=O)NC2(c3ccc(C#N)cc3)CC2)nn2c(C)c(-c3ccc4ccccc4c3)[nH]c(=O)c12` [Example 3-27, N-[1-(4-Cyanophenyl)cyclopropyl]-3,7-dimethyl-6-(naphthalen-2-yl)-4-oxo-4,5-dihydropyrazolo[1,5-a]pyrazine-2-carboxamide], the IC50 is 2.1 nM.

For `Cc1c(C(=O)NCC(C)Cn2cccn2)nn2c(C)c(-c3ccc4ccccc4c3)[nH]c(=O)c12` (stereo not drawn) [Example 3-7, 3,7-Dimethyl-N-[2-methyl-3-(1H-pyrazol-1-yl)propyl]-6-(2-naphthyl)-4-oxo-4,5-dihydropyrazolo[1,5-a]pyrazine-2-carboxamide], the IC50 amounted to 1.34 nM.

On to `N#Cc1c(C(=O)NC2(c3ccccc3)CC2)nn2cc(-c3ccc4ccccc4c3)[nH]c(=O)c12` [Example 3-49, 3-Cyano-6-(naphthalen-2-yl)-4-oxo-N-(1-phenylcyclopropyl)-4,5-dihydropyrazolo[1,5-a]pyrazine-2-carboxamide], for which the IC50 is 1.35 nM. Turning to `CC(CC(F)(F)F)NC(=O)c1cc2c(=O)[nH]c(-c3ccc4ccccc4c3)cn2n1` (stereo not drawn) [6-52], the IC50 turned out to be 3.55 nM. Then `Cc1ccc(-c2cn3nc(C(=O)NC(c4ccc(F)cc4)C4(O)CC4)c(C4CC4)c3c(=O)[nH]2)cc1F` (racemic) [6-381], with 1.52 nM; and `Cc1cc(-c2cn3nc(C(=O)N[C@H](C)C(C)(C)C)c(C4CC4)c3c(=O)[nH]2)ccc1Cl` [6-318], with 3.2 nM; and `Cc1ccc(-c2cn3nc(C(=O)NCCN(C)C4CC4)c(C4CC4)c3c(=O)[nH]2)cc1F` [6-384], with 3.4 nM. As to `Cc1cc(-c2cn3nc(C(=O)NC(C)C4CCC4)c(C(F)(F)F)c3c(=O)[nH]2)ccc1Cl` (single isomer, unassigned) [6-224], the IC50 worked out at 2 nM. For `COC[C@@H](NC(=O)c1nn2cc(-c3cnc4cccc(C)c4c3)[nH]c(=O)c2c1C(C)C)c1ccccc1` [Example 1-87, N-[(1S)-2-Methoxy-1-phenylethyl]-6-(5-methylquinolin-3-yl)-4-oxo-3-(propan-2-yl)-4,5-dihydropyrazolo[1,5-a]pyrazine-2-carboxamide], the IC50 turned out to be 2.85 nM. As to `Cc1ccc(-c2cn3nc(C(=O)NCCC(F)(F)F)c(C(F)(F)F)c3c(=O)[nH]2)cc1F` [6-148], the concentration for half-maximal inhibition (IC50) worked out at 8.4 nM. On to `COc1ccc(C2(NC(=O)c3nn4cc(-c5ccc(C)c(F)c5)[nH]c(=O)c4c3C3CC3)CN(C)C2)cc1` [6-365], for which the IC50 worked out at 3.15 nM. On to `Cc1ccc(-c2cn3nc(C(=O)N[C@H]4c5ccccc5C[C@@H]4O)cc3c(=O)[nH]2)cc1C` [Example 1-80, 6-(3,4-Dimethylphenyl)-N-[(1S,2S)-2-hydroxy-2,3-dihydro-1H-inden-1-yl]-4-oxo-4,5-dihydropyrazolo[1,5-a]pyrazine-2-carboxamide], for which the IC50 worked out at 6.68 nM.

With `C[C@H](NC(=O)c1nn2cc(-c3ccc(Cl)c(F)c3)[nH]c(=O)c2c1C1CCC1)C1CC1` [6-570], the 50% inhibitory concentration (IC50) amounted to 1.3 nM.

Turning to `Cc1cc(-c2cn3nc(C(=O)N[C@@H](c4ccc(F)cc4)C(F)(F)CO)c(C4CCC4)c3c(=O)[nH]2)ccc1Cl` [6-619], the IC50 came to 1.15 nM. On to `Cc1ccc(-c2cn3nc(C(=O)NC(C)c4cnc(OCC(F)(F)F)cn4)cc3c(=O)[nH]2)cc1C` (stereo not drawn) [6-2], for which the half-inhibitory concentration (IC50) was found to be 3.85 nM. For `Cc1ccc(-c2cn3nc(C(=O)N[C@@H](c4ccc(F)cc4)C(C)(C)O)c(C(C)C)c3c(=O)[nH]2)cc1C` [Example 1-135, 6-(3,4-Dimethylphenyl)-N-[(1S)-1-(4-fluorophenyl)-2-hydroxy-2-methylpropyl]-4-oxo-3-(propan-2-yl)-4,5-dihydropyrazolo[1,5-a]pyrazine-2-carboxamide], the 50% inhibitory concentration (IC50) worked out at 5.8 nM.

As to `COc1ccc(C(NC(=O)c2nn3cc(-c4cnc5cccc(C)c5c4)[nH]c(=O)c3c2C(C)C)C2CC2)cc1` (stereo not drawn) [Example 4-78, N-[Cyclopropyl(4-methoxyphenyl)methyl]-3-isopropyl-6-(5-methyl-3-quinolyl)-4-oxo-5H-pyrazolo[1,5-a]pyrazine-2-carboxamide], the IC50 is 1.55 nM. Turning to `CC(NC(=O)c1cc2c(=O)[nH]c(-c3ccc4cccnc4c3)cn2n1)c1ccc(F)cc1` (stereo not drawn) [6-27], the IC50 worked out at 2.63 nM.

As to `Cc1ccc(-c2cn3nc(C(=O)NCCN(CC(F)F)C4CC4)c(C(F)(F)F)c3c(=O)[nH]2)cc1Cl` [6-152], the half-maximal inhibitory concentration (IC50) is 4.75 nM. As to `Cc1cccc2ncc(-c3cn4nc(C(=O)N[C@@H](C)c5cnccn5)c(C(C)C)c4c(=O)[nH]3)cc12` [Example 4-28, 6-(5-Methylquinolin-3-yl)-4-oxo-3-(propan-2-yl)-N-[(7S)-1-(pyrazin-2-yl)ethyl]-4,5-dihydropyrazolo[1,5-a]pyrazine-2-carboxamide], the half-maximal inhibitory concentration (IC50) was 2.15 nM.

For the origin of these results see patent US20220324865A1 (Bayer Aktiengesellschaft, priority 2018, published 2022).
